Source: ChEMBL document CHEMBL3885861, “Open TG-GATES”

Organism: Rattus norvegicus
Assay: Open TG-GATES - Regimen: Daily Repeat
Type: toxicity, organism-based, Sprague-Dawley
Set-up: regimen Daily Repeat, gender Male, age 6 weeks
Settings: in vivo, po, 10 mg/kg, route gavage, dose level Middle; for APTT / Bas / Eos / Fbg / Hb / Ht / Lym / MCH / MCHC / MCV / Mono / Neu / PT / Plat / RBC / Ret / WBC: tissue Blood; for KIDNEY_L / KIDNEY_R / KIDNEY_TOTAL: tissue Kidney; for LIVER: tissue Liver; for A/G / ALP / ALT / AST / BUN / CRE / Ca / Cl / DBIL / GLC / IP / K / LDH / Na / PL / RALB / TBIL / TC / TG / TP / gamma-GTP: tissue Plasma

With Nc1c2c(nc3ccccc13)CCCC2 [TACRINE] the TERMINAL_BW (72 h, time 3 day) was 217.3 g, the APTT (72 h, time 3 day) was 19.9 s and the Bas (72 h, time 3 day) was 0%. For the same compound, the Eos (72 h, time 3 day) was 1%, the Fbg (72 h, time 3 day) was 290 mg/dL and the Hb (72 h, time 3 day) was 13.5 g/dL. It also gave a Ht (72 h, time 3 day) of 38.4%, a Lym (72 h, time 3 day) of 76.8% and an MCH (72 h, time 3 day) of 21 pg. It also gave an MCHC (72 h, time 3 day) of 35.3%, an MCV (72 h, time 3 day) of 59.5 fL and a Mono (72 h, time 3 day) of 2.2%. It also gave a Neu (72 h, time 3 day) of 19.2%, a PT (72 h, time 3 day) of 15.7 s and a Plat (72 h, time 3 day) of 128 x10_4/uL. The RBC (72 h, time 3 day) was 645.4 x10_4/ul, the Ret (72 h, time 3 day) was 5.5% and the WBC (72 h, time 3 day) was 74.8 x10_2/uL. The KIDNEY_L (72 h, time 3 day) was 0.9 g, the KIDNEY_R (72 h, time 3 day) was 1 g and the KIDNEY_TOTAL (72 h, time 3 day) was 1.9 g. It also gave an LIVER (72 h, time 3 day) of 9.2 g, an A/G (72 h, time 3 day) of 1.2 and an ALP (72 h, time 3 day) of 1488.6 IU/L. The ALT (72 h, time 3 day) was 42.6 IU/L, the AST (72 h, time 3 day) was 75.4 IU/L and the BUN (72 h, time 3 day) was 14.4 mg/dL. The CRE (72 h, time 3 day) was 0.2 mg/dL, the Ca (72 h, time 3 day) was 10.6 mg/dL and the Cl (72 h, time 3 day) was 108 meq/L. The DBIL (72 h, time 3 day) was 0 mg/dL, the GLC (72 h, time 3 day) was 186.2 mg/dL and the IP (72 h, time 3 day) was 7.1 mg/dL. For the same compound, the K (72 h, time 3 day) was 4.4 meq/L, the LDH (72 h, time 3 day) was 253 IU/L and the Na (72 h, time 3 day) was 142 meq/L. It also gave a PL (72 h, time 3 day) of 153.6 mg/dL, an RALB (72 h, time 3 day) of 3.1 g/dL and a TBIL (72 h, time 3 day) of 0.014 mg/dL. For the same compound, the TC (72 h, time 3 day) was 78.6 mg/dL, the TG (72 h, time 3 day) was 94.4 mg/dL and the TP (72 h, time 3 day) was 5.7 g/dL. It also gave a gamma-GTP (72 h, time 3 day) of 1 IU/L, a TERMINAL_BW ([…], time 7 day) of 245.3 g and a TERMINAL_BW ([…], time 14 day) of 297.7 g. The TERMINAL_BW ([…], time 28 day) was 336.4 g, the APTT ([…], time 7 day) was 22.4 s and the Bas ([…], time 7 day) was 0%. For the same compound, the Eos ([…], time 7 day) was 0.6%, the Fbg ([…], time 7 day) was 307.4 mg/dL and the Hb ([…], time 7 day) was 14 g/dL. The Ht ([…], time 7 day) was 40.1%, the Lym ([…], time 7 day) was 77.4% and the MCH ([…], time 7 day) was 20.9 pg. For the same compound, the MCHC ([…], time 7 day) was 34.8%, the MCV ([…], time 7 day) was 60 fL and the Mono ([…], time 7 day) was 2.2%. For the same compound, the Neu ([…], time 7 day) was 18.8%, the PT ([…], time 7 day) was 15.8 s and the Plat ([…], time 7 day) was 117.3 x10_4/uL. It also gave an RBC ([…], time 7 day) of 668 x10_4/ul, a Ret ([…], time 7 day) of 5.4% and a WBC ([…], time 7 day) of 103.5 x10_2/uL. The APTT ([…], time 14 day) was 23.1 s, the Bas ([…], time 14 day) was 0% and the Eos ([…], time 14 day) was 0.8%. The Fbg ([…], time 14 day) was 317.6 mg/dL, the Hb ([…], time 14 day) was 14.7 g/dL and the Ht ([…], time 14 day) was 41.8%. The Lym ([…], time 14 day) was 84.4%, the MCH ([…], time 14 day) was 20.8 pg and the MCHC ([…], time 14 day) was 35.1%. The MCV ([…], time 14 day) was 59.4 fL, the Mono ([…], time 14 day) was 1.4% and the Neu ([…], time 14 day) was 12.6%. The PT ([…], time 14 day) was 15.5 s, the Plat ([…], time 14 day) was 117.2 x10_4/uL and the RBC ([…], time 14 day) was 704.4 x10_4/ul. For the same compound, the Ret ([…], time 14 day) was 4.3%, the WBC ([…], time 14 day) was 95.3 x10_2/uL and the APTT ([…], time 28 day) was 22.6 s. It also gave a Bas ([…], time 28 day) of 0%, an Eos ([…], time 28 day) of 1% and a Fbg ([…], time 28 day) of 301.8 mg/dL. It also gave a Hb ([…], time 28 day) of 15.1 g/dL, a Ht ([…], time 28 day) of 41.2% and a Lym ([…], time 28 day) of 79.6%. For the same compound, the MCH ([…], time 28 day) was 20.1 pg, the MCHC ([…], time 28 day) was 36.7% and the MCV ([…], time 28 day) was 54.7 fL. The Mono ([…], time 28 day) was 2%, the Neu ([…], time 28 day) was 16.6% and the PT ([…], time 28 day) was 16.4 s. The Plat ([…], time 28 day) was 93.2 x10_4/uL, the RBC ([…], time 28 day) was 752 x10_4/ul and the Ret ([…], time 28 day) was 2.9%. For the same compound, the WBC ([…], time 28 day) was 95.4 x10_2/uL, the KIDNEY_L ([…], time 7 day) was 1 g and the KIDNEY_R ([…], time 7 day) was 1.1 g. It also gave a KIDNEY_TOTAL ([…], time 7 day) of 2.1 g, a KIDNEY_L ([…], time 14 day) of 1.1 g and a KIDNEY_R ([…], time 14 day) of 1.2 g. It also gave a KIDNEY_TOTAL ([…], time 14 day) of 2.3 g, a KIDNEY_L ([…], time 28 day) of 1.2 g and a KIDNEY_R ([…], time 28 day) of 1.2 g. For the same compound, the KIDNEY_TOTAL ([…], time 28 day) was 2.4 g, the LIVER ([…], time 7 day) was 10.5 g and the LIVER ([…], time 14 day) was 12.6 g. For the same compound, the LIVER ([…], time 28 day) was 12.9 g, the A/G ([…], time 7 day) was 1.2 and the ALP ([…], time 7 day) was 1555.6 IU/L. It also gave an ALT ([…], time 7 day) of 42.2 IU/L, an AST ([…], time 7 day) of 82.8 IU/L and a BUN ([…], time 7 day) of 15.8 mg/dL. The CRE ([…], time 7 day) was 0.2 mg/dL, the Ca ([…], time 7 day) was 10.6 mg/dL and the Cl ([…], time 7 day) was 108.2 meq/L. The DBIL ([…], time 7 day) was 0.004 mg/dL, the GLC ([…], time 7 day) was 180 mg/dL and the IP ([…], time 7 day) was 6.8 mg/dL. For the same compound, the K ([…], time 7 day) was 4.1 meq/L, the LDH ([…], time 7 day) was 235.6 IU/L and the Na ([…], time 7 day) was 141 meq/L. The PL ([…], time 7 day) was 145.2 mg/dL, the RALB ([…], time 7 day) was 3 g/dL and the TBIL ([…], time 7 day) was 0.024 mg/dL. The TC ([…], time 7 day) was 72.2 mg/dL, the TG ([…], time 7 day) was 120.8 mg/dL and the TP ([…], time 7 day) was 5.5 g/dL. It also gave a gamma-GTP ([…], time 7 day) of 1 IU/L, an A/G ([…], time 14 day) of 1.2 and an ALP ([…], time 14 day) of 1291.4 IU/L. It also gave an ALT ([…], time 14 day) of 36.8 IU/L, an AST ([…], time 14 day) of 67.8 IU/L and a BUN ([…], time 14 day) of 18.4 mg/dL. For the same compound, the CRE ([…], time 14 day) was 0.2 mg/dL, the Ca ([…], time 14 day) was 10.8 mg/dL and the Cl ([…], time 14 day) was 108 meq/L. It also gave a DBIL ([…], time 14 day) of 0 mg/dL, a GLC ([…], time 14 day) of 185.2 mg/dL and an IP ([…], time 14 day) of 6.4 mg/dL. It also gave a K ([…], time 14 day) of 4 meq/L, an LDH ([…], time 14 day) of 168 IU/L and a Na ([…], time 14 day) of 142.6 meq/L. For the same compound, the PL ([…], time 14 day) was 152.6 mg/dL, the RALB ([…], time 14 day) was 3.2 g/dL and the TBIL ([…], time 14 day) was 0.004 mg/dL. The TC ([…], time 14 day) was 75 mg/dL, the TG ([…], time 14 day) was 136.2 mg/dL and the TP ([…], time 14 day) was 5.8 g/dL. It also gave a gamma-GTP ([…], time 14 day) of 1 IU/L, an A/G ([…], time 28 day) of 1.1 and an ALP ([…], time 28 day) of 1046.8 IU/L. For the same compound, the ALT ([…], time 28 day) was 37 IU/L, the AST ([…], time 28 day) was 63.4 IU/L and the BUN ([…], time 28 day) was 18.8 mg/dL. For the same compound, the CRE ([…], time 28 day) was 0.2 mg/dL, the Ca ([…], time 28 day) was 10.5 mg/dL and the Cl ([…], time 28 day) was 107.4 meq/L. It also gave a DBIL ([…], time 28 day) of 0 mg/dL, a GLC ([…], time 28 day) of 188.8 mg/dL and an IP ([…], time 28 day) of 6.7 mg/dL. The K ([…], time 28 day) was 4.1 meq/L, the LDH ([…], time 28 day) was 116 IU/L and the Na ([…], time 28 day) was 141.8 meq/L. It also gave a PL ([…], time 28 day) of 142 mg/dL, an RALB ([…], time 28 day) of 3.1 g/dL and a TBIL ([…], time 28 day) of 0.006 mg/dL. The TC ([…], time 28 day) was 70.4 mg/dL, the TG ([…], time 28 day) was 121 mg/dL and the TP ([…], time 28 day) was 5.9 g/dL. The gamma-GTP ([…], time 28 day) was 1.2 IU/L.
